Experimental data taken from publication PMC7557147 (Biochemical Journal, 2020).

How the values were obtained:
TgAPN2 [1] = biological target: T1, TgAPN2 (Toxoplasma gondii, UniProt S8G5K8, N1303Q/N840Q); type: biochemical, Toxoplasma gondii ME49; settings: relative to hArg = 100%; 10 µM ACC substrate, 0.5 nM enzyme
TgAPN2 [2] = biological target: T1, TgAPN2; experiment: TgAPN2 aminopeptidase activity under chelating conditions; type: biochemical, Toxoplasma gondii ME49; settings: increasing EDTA concentration (0–200 mM); 20 nM enzyme, 15 µM substrate
TgAPN2 [3] = biological target: T1, TgAPN2; experiment: Michaelis-Menten kinetics of TgAPN2 with fluorogenic Mec substrates; type: biochemical, Toxoplasma gondii ME49; settings: substrate of TgAPN2, 20 nM enzyme, 37°C, pH 8.0
recombinant TgAPN2 = settings: ref [14]; cited from earlier work

SMILES: N=C(N)NCCC[C@H](N)C(=O)O [Arg]
- normalised relative activity of TgAPN2 toward P1 substrate (TgAPN2 [1]): 81%

SMILES: O=C(O)CN(CCN(CC(=O)O)CC(=O)O)CC(=O)O [EDTA]
- effect on TgAPN2 enzyme velocity (TgAPN2 [2]): reduction in enzyme velocity

SMILES: Cc1cc(=O)oc2cc(NC(=O)[C@@H](N)CCCNC(=N)N)ccc12.Cl [L-Arg-Mec, L-arginine-7-amido-4-methylcoumarin hydrochloride]
- Km (TgAPN2 [3]): 148 ± 5.1 µM
- kcat (TgAPN2 [3]): 1017 ± 15.2 s⁻¹
- kcat (TgAPN2 [3]; listed as Arg-Mec): 1017 s⁻¹

SMILES: Cc1cc(=O)oc2cc(NC(=O)[C@@H](N)CC(C)C)ccc12.Cl [L-Leu-Mec, L-leucine-7-amido-4-methylcoumarin hydrochloride]
- Km (TgAPN2 [3]): 31.8 ± 3 µM
- kcat (TgAPN2 [3]): 1.32 ± 0.03 s⁻¹
- kcat (TgAPN2 [3]; listed as Leu-Mec): 1.32 s⁻¹

SMILES: CC(C)C[C@H](N)C(=O)O [Leu]
- normalised relative activity of TgAPN2 toward P1 substrate (TgAPN2 [1]): 26%

SMILES: NCCCC[C@H](N)C(=O)O [Lys]
- normalised relative activity of TgAPN2 toward P1 substrate (TgAPN2 [1]): 52%

SMILES: CC(C)C[C@@H](N)[C@H](O)C(=O)N[C@H](C(=O)N[C@H](C(=O)N[C@@H](CC(=O)O)C(=O)O)C(C)C)C(C)C [amastatin]
- inhibition of recombinant TgAPN2 (in words) (recombinant TgAPN2): inhibited

SMILES: CC(C)C[C@H](NC(=O)[C@@H](O)[C@H](N)Cc1ccccc1)C(=O)O [bestatin]
- inhibition of recombinant TgAPN2 (in words) (recombinant TgAPN2): inhibited

SMILES: NC(N)=NCCCC[C@H](N)C(=O)O [hArg, Homo-arginine]
- normalised relative activity of TgAPN2 toward P1 substrate (TgAPN2 [1]): 100%

SMILES: N[C@@H](CCc1ccccc1)C(=O)O [hPhe]
- normalised relative activity of TgAPN2 toward P1 substrate (TgAPN2 [1]): 18%

SMILES: N[C@@H](CCc1ccc(O)cc1)C(=O)O [hTyr]
- normalised relative activity of TgAPN2 toward P1 substrate (TgAPN2 [1]): 54%
